According to paper PMC10197068 (Bioconjugate Chemistry, 2023):

Key:
[1] = system: G2T6 (DNA, G4) AGGGTTAGGGTTAGGGTTAGGGTTATTATTATTATTATTAGGGTTAGGGTTAGGGTTAGGG; experiment: CD melting at 295 nm; conditions: 100 mM NaCl, 10 mM Li cacodylate, pH 7.3, 3 μM DNA
[2] = system: G2T1 (DNA, G4) AGGGTTAGGGTTAGGGTTAGGGTTAGGGTTAGGGTTAGGGTTAGGG; experiment: CD melting at 295 nm; conditions: 100 mM NaCl, 10 mM Li cacodylate, pH 7.3, 3 μM DNA
[3] = system: G2T1 (Na+) dimeric HTelo G4 DNA, AGGG(TTAGGG)7; experiment: CD melting with G2T1 (Na+); format: binding, human; conditions: CD melting at 295 nm, 25 to 95 °C at 2 °C/min; 100 mM NaCl, 10 mM Li cacodylate, pH 7.3; [G4 unit] 6 μM (3 μM dimeric sequence), [salphen unit] 12 μM
Method: (§1) Next, the DNA binding properties of the monomeric and dimeric compounds were studied. […] The following notation is used: […] The CD melting experiments were conducted solely with Na^+ stabilized DNA, which forms an antiparallel topology in solution (cf., in the presence of K^+ a mixture of topologies is observed). During the assay the temperature was increased from 25 to 95 °C upon which the intensity of signals with negative ellipticity at ca. 265 nm and positive ellipticity at ca. 295 (characteristic of an antiparallel G4 structure) decreased-see Figure 4a. This indicates the expected unfolding of the G4 DNA structure as the temperature increases. The changes in intensity were subsequently used to produce the corresponding melting curves (Figure 4b) for each sequence in the absence and presence of the different compounds under study. From these curves, the ΔTm values for the different sequences and compounds were determined, and the results are summarized in Figure 4c (see Supplementary Table 1 for values). […] G-Quadruplex oligonucleotides were purchased from Eurogentec (Belgium), and CT-DNA was purchased from Sigma-Aldrich. […] Prior to use, the DNA stock solutions were annealed by heating at 95 °C for 5 min and then cooling to room temperature overnight. Experiments were carried out on a Jasco J-810 spectrophotometer using a 1 cm quartz cuvette. Temperature was controlled using a Peltier module. The signal at 295 nm was monitored as temperature was increased for 25 to 95 °C at a rate of 2 °C/min. CD melting experiments were carried out with the appropriate G4 DNA (100 mM NaCl, 10 mM Li cacodylate, pH 7.3). Sample preparation was carried out by combining stock solutions of ligand and DNA in the appropriate buffer. […] Melting temperatures were obtained by curve fitting in Graphpad Prism 8. The data was normalized and fitted to a variable slope Hill equation, and the melting temperature was defined at the temperature at which y = 0.5.

[4] = system: G2T6 (Na+) dimeric HTelo G4 DNA, AGGG(TTAGGG)3(TTA)5(TTAGGG)4; experiment: CD melting with G2T6 (Na+); format: binding, human; conditions: CD melting at 295 nm, 25 to 95 °C at 2 °C/min; 100 mM NaCl, 10 mM Li cacodylate, pH 7.3; [G4 unit] 6 μM (3 μM dimeric sequence), [salphen unit] 12 μM
Method: as §1

[5] = system: G1 (Na+) monomeric HTelo G4 DNA, AGGG(TTAGGG)3; experiment: CD melting with G1 (Na+); format: binding, human; conditions: CD melting at 295 nm, 25 to 95 °C at 2 °C/min; 100 mM NaCl, 10 mM Li cacodylate, pH 7.3; [G4 unit] 6 μM, [salphen unit] 12 μM
Method: as §1

[6] = 6 μM compound (12 μM salphen units)

SMILES	ΔTm [2, 6] [°C]	ΔTm ([1]; 12 μM compound) [°C]	ΔTm ([2]; 12 μM compound) [°C]	other results
C[N+](C)(C)CCOc1ccc(C=Nc2ccc(C(=O)NCc3cn(CC(=O)N[C@@H](CCCNC(=N)N)C(=O)N[C@@H](CCCCN)C(=O)N[C@@H](CCCCN)C(=O)N[C@@H](CCCNC(=N)N)C(=O)N[C@@H](Cn4cc(CNC(=O)c5ccc(N=Cc6ccc(OCC[N+](C)(C)C)cc6[O-])c(N=Cc6ccc(OCC[N+](C)(C)C)cc6[O-])c5)nn4)C(N)=O)nn3)cc2N=Cc2ccc(OCC[N+](C)(C)C)cc2[O-])c([O-])c1.[Pt+2].[Pt+2]	16.3	–	–	ΔTm [1, 6]: 13.8 °C
C[N+](C)(C)CCOc1ccc(C=Nc2ccc(C(=O)NCc3cn(CC(=O)N[C@@H](CCCNC(=N)N)C(=O)N[C@@H](CCCNC(=N)N)C(=O)N[C@@H](Cn4cc(CNC(=O)c5ccc(N=Cc6ccc(OCC[N+](C)(C)C)cc6[O-])c(N=Cc6ccc(OCC[N+](C)(C)C)cc6[O-])c5)nn4)C(N)=O)nn3)cc2N=Cc2ccc(OCC[N+](C)(C)C)cc2[O-])c([O-])c1.[Pt+2].[Pt+2]	14.6	–	–	–
C[N+](C)(C)CCOc1ccc(C=Nc2ccccc2N=Cc2ccc(OCC[N+](C)(C)C)cc2[O-])c([O-])c1.[Ni+2]	–	17	16	–
C[N+](C)(C)CCOc1ccc(C=Nc2ccccc2N=Cc2ccc(OCC[N+](C)(C)C)cc2[O-])c([O-])c1.[Pt+2]	–	19	21	–
C[N+](C)(C)CCOc1ccc2c(c1)[O][Ni][O]c1cc(OCC[N+](C)(C)C)ccc1C=Nc1cc(C(=O)NCc3cn(CCOCCOCCn4cc(CNC(=O)c5ccc6c(c5)N=Cc5ccc(OCC[N+](C)(C)C)cc5[O][Ni][O]c5cc(OCC[N+](C)(C)C)ccc5C=N6)nn4)nn3)ccc1N=C2.F[P-](F)(F)(F)(F)F.F[P-](F)(F)(F)(F)F.F[P-](F)(F)(F)(F)F.F[P-](F)(F)(F)(F)F [Compound D2]	–	–	–	ΔTm G2T1 (Na+) [3]: 13.80 °C; ΔTm G2T6 (Na+) [4]: 11.14 °C; ΔTm G1 (Na+) [5]: 2.66 °C
